# According to patent US8258295B2, “Triazine derivatives, compositions containing such derivatives, and methods of treatment of cancer and autoimmune diseases using such derivatives” (Prometic Biosciences Inc., priority 2007, dated 2012):
# Like-named read-outs stand apart in the source and are kept apart here.
# Columns and labels:
# [1] = tested on: PC-3 human prostate carcinoma cell; assay: MTT cytotoxicity on PC-3; format: cell-based
# Experimental: (§1) This assay was performed to determine the effect of compounds of the present invention on cell cytotoxicity. Cells were incubated in presence or absence of compounds in their respective conditioned media. After 24 hr or 72 hr incubation, 50 μl of 3-(4,5-dimethyl-2-thiazyl)-2,5-diphenyl-2H-tetrazolium bromide (MTT; 2 mg/ml) was added and further incubated for 4 hr. The supernatant was discarded and 100 μl of dimethylsulfoxide (DMSO) was added. Absorbance was read at 570 nm with a TecanSunrise ELISA plate reader. The control group consisted of cells without compounds and is referred to as 100% of viable cells. IC50 was determined using Prism software.
# (§2) All compounds have weak effect on cell cytotoxicity. The predictive utility of cell based cytotoxicity assays to assess the potential in vivo anticancer activity of compounds with selected cancer cell lines is well established in the art and the use of whole cells, instead of isolated protein receptors or enzymes, provides a more reliable determination of activity. See, for example, Paull et al. (J. Nat'l Cancer Inst. 81:1088-1092, 1989); Monks et al. (J. Nat'l Cancer Inst. 83:757-766, 1991); Bandes et al. (J. Nat'l Cancer Inst. 86:770-775, 1994); and Kamate et al. (Int'l J. Cancer 100:571-579, 2002).
# [2] = tested on: P815 murine mastocytoma cell; assay: MTT cytotoxicity on P815; format: cell-based; conditions: Mus musculus
# Experimental: as §1, §2
# TNFα = TNFα (Homo sapiens, UniProt P01375); assay: TNFα-induced apoptosis in WEHI-13VAR cell line; format: cell-based; conditions: for inhibition at 10 µM: 1 × 10^−5 M; for inhibition at 20 µM: 2 × 10^−5 M; for inhibition at 40 µM: 4 × 10^−5 M; for inhibition at 5 µM: 5 × 10^−6 M
# Sequence of TNFα (P01375 77-233 limits assumed, species assumed): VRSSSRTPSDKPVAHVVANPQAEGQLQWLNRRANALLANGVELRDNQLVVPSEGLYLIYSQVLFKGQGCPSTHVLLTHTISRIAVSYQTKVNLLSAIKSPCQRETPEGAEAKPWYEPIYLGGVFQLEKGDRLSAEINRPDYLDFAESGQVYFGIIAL
# Experimental: Effect of compounds on TNFα-induced apoptosis was measured by a standard biological assay using WEHI-13VAR cells. These cells undergo apoptosis when they are incubated in the presence of TNFα and actinomycin D. 2×10^4 WEHI-13VAR cells were incubated in RPMI supplemented with 1% sodium pyruvate and 10% FBS, overnight at 37° C. for cell adherence. The cells were then cultured in the presence of 1 μg/ml of actimomycin D ([…]) and 0.04 nM TNFα with or without compounds at 37° C. After 16 hr to 24 hr, 50 μl of a solution of 2 mg/ml of MIT was added to each well and the plate was then incubated for 4 hr at 37° C. Only viable cells metabolize MTT to form formazan salt, which is detectable by the measurement of absorbance at 570 nm. After the incubation, the plate was inverted to remove medium and dead cells. 150 μDMSO was added to each well to stop the reaction and solubilize the formazan salt. Optical density was read on a Bio-Tek EL 800 UV microplate reader. A decrease in the optical density is direct evidence of cell apoptosis induced by TNFα. Compounds were also compared to the activity of an anti-TNFα neutralizing antibody.
# [3] = tested on: oxazolone-induced delayed-type hypersensitivity (DTH); assay: Oxazolone-induced delayed-type hypersensitivity (DTH) in mice; format: in vivo
# Experimental: Compounds were tested for their ability to treat oxazolone-induced delayed-type hypersensitivity (DTH) in mice. […] On day 0, day 1, and day 2, mice were treated by intravenous (IV) or oral (PO) administrations of the vehicle (control) or methotrexate (MTX; positive control/IV) or hydrocortisone (positive control/PO) or the compound at concentration lower than or equal to 50 mg/kg or as specified. Mice were challenged with an application of 50 μl of oxazolone on the surface of the right ear (first challenge, day 3; second challenge, day 10). Ear thickness was measured on day 4 to day 7, and on day 11 to 14. Redness and crust formation was also observed. Mice were sacrificed on day 14. TDTH (CD4) cells play an important role in regulating the intensity of the DTH response. Compounds may exert an inhibitory influence on the DTH response through its inhibition of T-cell activation and DNA, RNA, and/or protein synthesis.
# [4] = tested on: adjuvant-induced arthritis (AIA); assay: Freund's adjuvant-induced arthritis (AIA) in Lewis rats; format: in vivo; conditions: female Lewis rats, oral administration; FIG. 18
# Experimental: AIA was induced in female Lewis rats by the injection of lyophilized Mycobacterium butyricum suspended in mineral oil into the footpad. The development of arthritis was monitored over a 3-week period post-adjuvant injection. Inflammation peaks at day 3 following the adjuvant administration. Immune activation appears around day 10 to day 16. Compounds were orally administered from day −3 to day 21. Body weight was recorded. The arthritis index, which is a measure of inflammation (edema), redness, and stiffness of the articulations, was used to monitor the development of the disease. The degree of arthritis was determined by measuring two perpendicular diameters of the ankles in the mediolateral and dorsoventral planes using a caliper. Joint circumference in millimeters is then calculated using a geometric formula.
# [5] = tested on: LPS-induced inflammation in the rat air-pouch model; assay: LPS-induced inflammation in rat air-pouch model; format: in vivo, rats; conditions: IV, pouch exudate
# Excerpt: LPS-induced inflammation in the rat air-pouch model is believed to mimic the pathological process occurring in joint diseases such as arthritis. This is because the connective tissues formed along the air pouch are similar to those found in chronic joint diseases. LPS-induced inflammation and chronic joint diseases share other features, including markedly elevated PGE2, neutrophil infiltration, cytokine formation, and tissue damage.
# An air cavity was produced at day −6 by subcutaneous injection of 20 ml of sterile air into the intrascapular area of the back of male Lewis rats (175 to 200 g). An additional 10 ml of air was injected into the cavity at day −3 to keep the space open. At day 0, compounds were administered intravenously and one hour later lipopolysaccharide (LPS: 2.5 ml of 2 μg/ml in PBS) was injected into the pouch to produce an inflammatory reaction. […] The pouch fluid was collected. The volume of exudates was measured and the number of leukocytes present in the exudates was determined with a Coulter counter. The differential count was determined by Wright-Giemsa staining. PGE2, LTB4, MCP, and TNFα were determined in the pouch exudates by specific ELISAs.
# [6] = tested on: NHDF (normal human dermal fibroblast); assay: MTT cytotoxicity on NHDF; format: cell-based
# Experimental: as §1, §2
# [7] = tested on: HUVEC (human umbilical vein endothelial cell); assay: MTT cytotoxicity on HUVEC; format: cell-based
# Experimental: as §1, §2
# [8] = 24 hr culture, read-out: IC50 of 24-hour culture PC-3
# [9] = 72 hr culture, read-out: IC50 of 72-hour culture PC-3
# [10] = 24 hr culture, read-out: IC50 of 24-hour culture P815
# [11] = 72 hr culture, read-out: IC50 of 72-hour culture P815
SMILES,inhibition at 10 µM (TNFα) [%],inhibition at 20 µM (TNFα) [%],inhibition at 40 µM (TNFα) [%],inhibition at 5 µM (TNFα) [%],"IC50 [1, 8] [µM]","IC50 [1, 9] [µM]","IC50 [2, 10] [µM]","IC50 [2, 11] [µM]",also measured
NCCCCCNc1nc(Nc2ccc(S(N)(=O)=O)cc2)nc(Nc2cccc(F)c2)n1 [Compound VIII],35.6,48.1,55.6,17,31,5.2,10.9,2.9,–
"COc1ccc2c(c1)c(CC(=O)O)c(C)n2C(=O)c1ccc(Cl)cc1 [indomethacin, reference compound]",–,–,–,–,–,–,–,–,"severity of arthritis (inflammatory index) [4]: significant reduction in the severity of arthritis; PGE2 production induced by LPS ([5]; twelve hours after induction, FIG. 21B): significant inhibition; TNFα production induced by LPS ([5]; twelve hours post-LPS induction, FIG. 21A): weak inhibition; TNFα production induced by LPS ([5]; two hours after induction, FIG. 20A): increase the concentration of TNFα; PGE2 production induced by LPS ([5]; two hours after induction, FIG. 20B): significant inhibition; LTB4 production induced by LPS ([5]; two hours after induction, FIG. 20C): did not affect the production of LTB4; MCP-1 production induced by LPS ([5]; two hours after induction, FIG. 20D): significant increase"
NCCCCCNc1nc(Nc2cccc(F)c2)nc(-c2cccc(F)c2)n1 [XII],–,–,–,–,–,9,–,21.7,–
NCCCCCNc1nc(NCCc2ccc(N)cc2)nc(Nc2ccc(F)cc2)n1 [Compound IV],13.1,31.6,47.2,3.7,56.6,51.9,33,–,"IC50 ([6]; 24 hr culture, read-out: IC50 of 24-hour culture NHDF): 82.1 µM; IC50 ([6]; 72 hr culture, read-out: IC50 of 72-hour culture NHDF): 42.5 µM; IC50 ([7]; 24 hr culture, read-out: IC50 of 24-hour culture HUVEC): 51.3 µM; IC50 ([7]; 72 hr culture, read-out: IC50 of 72-hour culture HUVEC): > 100 µM; inflammation (ear thickness) after DTH ([3]; oral 50 mg/kg, FIG. 15): significant reduction of the inflammation"
NCCCCCNc1nc(NCCc2ccc(S(N)(=O)=O)cc2)nc(Nc2ccc(F)cc2)n1 [Compound VII],65.8,99.9,118,30,17.7,14.1,12.6,4,–
NCCCCNc1nc(NCCc2ccc(S(N)(=O)=O)cc2)nc(Nc2cccc(F)c2)n1 [Compound IX],29.8,46.7,65.5,13.2,–,–,–,–,–
CN(C)S(=O)(=O)c1ccc(CCNc2nc(NCCCCCN)nc(Nc3cccc(F)c3)n2)cc1 [Compound III],52,89.7,–,20.4,30.1,27.6,13.6,5.5,"inflammation (ear thickness) after DTH ([3]; oral 50 mg/kg, first challenge of oxazolone): significant reduction of the inflammation; inflammation (ear thickness) after DTH ([3]; oral 50 mg/kg, second challenge of oxazolone): significant reduction of the inflammation"

# Further lines, with some results ahead:
inhibition at 10 µM (TNFα) [%],inhibition at 20 µM (TNFα) [%],inhibition at 40 µM (TNFα) [%],inhibition at 5 µM (TNFα) [%],SMILES,"IC50 [1, 8] [µM]","IC50 [1, 9] [µM]","IC50 [2, 10] [µM]","IC50 [2, 11] [µM]",also measured
44.4,79.9,53.9,19.4,CN(C)S(=O)(=O)c1ccc(CCNc2nc(NCCCCCN)nc(Nc3ccc(F)cc3)n2)cc1 [Compound X],–,–,–,–,"inflammation (ear thickness) after DTH ([3]; IV 5 mg/kg, first challenge of oxazolone): significant reduction of the inflammation"
14.6,23.7,35,9.9,NCCCCCNc1nc(NCC(O)c2ccc(O)cc2)nc(Nc2ccc(F)cc2)n1 (stereo not shown) [Compound XI],–,–,–,–,"inflammation (ear thickness) after DTH ([3]; IV 25 mg/kg, first challenge of oxazolone): significant reduction of the inflammation"
54.8,74.1,89.5,28.2,NCCCCCNc1nc(NCCc2ccc(C(N)=O)cc2)nc(Nc2cccc(F)c2)n1 [Compound VI],–,–,–,–,–
